Assay results reported in patent US5506147A, “Non-invasive evaluation of maldigestion and malaborption” (priority 1994, dated 1996).
“And” between values parts separate entries of the source, which are not always exact repeats. Equal values may be shown once. Values belong to the molecule of their own block, whether it stands above or below them.

Assays:
[1] = clinical; design: species or system human; settings: in vivo
Source text: Xylose is purified for detection by GC/MS by the process shown in Example 7. The purification process involves rapid deproteination and two-hour derivatization. The analysis involves the examination of one specific ion (M/Z 417) of one specific anomeric peak. Because of natural anomers and possibly incomplete derivatization of carbohydrates, xylose may show several peaks on GC/MS. It is necessary to use a peak providing a linear assay. In the present assay, using a ten-meter column, xylose elutes at 6.6 minutes when the temperature is ramped from 80°-300° C. using helium gas at a head pressure of 50 psi. A second smaller peak elutes at 6.7 minutes. […]
The xylose is also measured in the second fluid sample by GC/MS. […] A value less than or equal to about 2.5 mg/dl is read as abnormal.
Pancreatic and small bowel function were simultaneously evaluated using a gas chromatographic mass spectrometric (GC/MS) method on serum samples. In this method, xylose absorption was quantitated using [^13 C]1 -xylose, a stable isotope of xylose. […] The ratio (Pancreatic Ratio) of bentiromide PABA to stable isotope PABA in 60-minute sera samples was determined and expressed as a fraction and quantitated relative to added 2,6[^2 H]2 -PABA. […]
17. Place supernatant fluid into autosampler vial and examine by GC/MS using ^13 C1 -xylose as a standard for quantitation The derivatized xylose has four peaks. […]

[2] = human, in vivo, po
Description: The serum xylose test is one of the best non-invasive methods for diagnosing intestinal malabsorption. In this test, D-xylose, a five-carbon sugar not naturally present in the body or in foodstuffs, is given orally and an estimation of the increase in serum xylose content is carried out through colorimetric determination (CD) of non-glucose reducing sugars in serum. However, the test is occasionally misleading by giving both false positive and false negative results. Older xylose tests measured xylose in the urine. Problems with this test include the fact that the Roe and Rice method of D-xylose analysis is non-specific and cross-reacts partially with glucose. […] Furthermore, the test critically depends on complete emptying of the urinary bladder at five hours and on intact renal function.
An isotope dilution assay was developed for serum xylose using GC/MS to compare to the CD of serum xylose from a commercial diagnostic company to see if variations in the analysis itself may be a contributing cause to the misleading clinical results. Since GC/MS analysis relies on both column separation and mass identification, it is more specific for xylose determination than CD.

[3] = test system: chymotrypsin; assay: Bentiromide test with stable isotope PABA, serum PABA ratio by GC/MS (Pancreatic Ratio); format: in vivo, human
Description: The abundance of PABA and PABA isotope of the type administered to the patient in the 0-time sample is determined and compared to the abundance of PABA (from cleavage of bentiromide) and isotope PABA in the second sample. After adjustment for differences in the abundance of the identical quantities of PABA isotope used for standardization placed in the assay, the value of PABA in the 0-time sample is subtracted from the abundance of the PABA in the second sample (a like correction is also applied to the PABA isotope of the type administered) and a ratio of natural PABA to PABA isotope of the type administered is then determined. Individuals with a ratio greater than 0.32 are considered normal, individuals with a ratio of 0.28-0.32 are considered indeterminate, individuals with a ratio of less than 0.28 are considered abnormal.
Pancreatic and small bowel function were simultaneously evaluated using a gas chromatographic mass spectrometric (GC/MS) method on serum samples. In this method, xylose absorption was quantitated using [^13 C]1 -xylose, a stable isotope of xylose. Absorption of p-aminobenzoic acid (PABA), released from bentiromide by the action of endogenous chymotrypsin, was compared to the absorption of stable isotope PABA (^13 C6), administered orally simultaneously with bentiromide. The ratio (Pancreatic Ratio) of bentiromide PABA to stable isotope PABA in 60-minute sera samples was determined and expressed as a fraction and quantitated relative to added 2,6[^2 H]2 -PABA.
A person presented with diarrhea and hyperthyroidism and was also noted to have significant steatorrhea (63 g fat/24 hours). The patient was further evaluated with standard serum D-xylose testing, which was abnormal (13 mg/dl, nl 20-40). […] The patient then was given the above GC/MS test. A 0-time 10 ml blood sample was taken; 6.7 mg of bentiromide was administered along with 2.0 mg of stable isotope PABA and 5 g D-xylose, and 8 fl. oz of Resource. Sixty minutes later, 10 ml of blood was drawn. The sera after clotting was collected and the PABA, [^13 C]6 -PABA and xylose were purified and assayed by GC/MS.
At 0-time, a blood sample was taken from all patients in the amount of 10 ml, yielding 4-6 ml of serum, an aliquot of which was analyzed by GC/MS for PABA content.
Bentiromide in the amount of 6.7 mg and stable isotope PABA ([^13 C]6 -PABA) in the amount of 2 mg was administered to normal patients and patients with various pancreatic injuries after Internal Review Board approval. After an overnight fast (nothing by mouth after midnight except water or coffee with cream), a 0-time blood sample was drawn. The patients then drank 8 oz. of Resource followed immediately (within less than five minutes) by the test solution comprising 6.7 mg bentiromide, 2 mg stable isotope PABA, and 5 grams of D-xylose dissolved in 30 cc (1 oz.) of water. Sixty minutes later, 10 mls of blood were drawn and the subjects dismissed.
Serum collected one hour after the test meal was analyzed by GC/MS for the ratio of natural PABA to stable isotope PABA. The simultaneous administration of stable isotope PABA with bentiromide corrects for variations in gastric emptying, intestinal absorption, renal function and interfering substances in serum.
Bentiromide and stable isotope PABA were administered as set forth in Example 2 to four groups of patients designated A, B, C, and D on the X axis of FIG. 1. The ratio of labelled (i.e. stable isotope PABA) to bentiromide PABA in sera at 60 minutes is shown on the Y axis.
Several types of columns are used in this analysis and these include a strong anion exchange column (SAX), a strong cation exchange column (SCX), and a C18 column. The SAX and SCX columns are prepared in disposable plastic columns containing 50 mg of each resin. Prior to use, the column is prepared by a column volume of methanol followed by four washings with four column volumes of water. […]

[4] = test system: chymotrypsin; settings: cited from earlier work
[5] = Alcoholic Pancreatitis (n = 4), serum one hour
[6] = Cystic Fibrosis (n = 16), serum one hour
[7] = Other Pancreatitis (n = 4), serum one hour

back exchange (boiling water): lack of reaction in boiling water
SMILES: [2H]c1c([2H])c(C(=O)O)c([2H])c([2H])c1N [Example 12, 4-aminobenzoic-2,3,5,6-[^2 H]4]
decomposition (hot dilute acid): extensive decomposition in hot dilute acid

concentration at 1 h ([1]; human, po): 150 µg/mL | xylose analysis, FIG. 4 (in words) [1]: low | standard serum D-xylose testing [2]: 13 mg/dL | xylose content by CD, sera post xylose administration [2]: 3 to 52 mg/dL
SMILES: O=C[C@H](O)[C@@H](O)[C@H](O)CO [xylose, D-xylose]

Ratio in % of Natural PABA to Stable Isotope PABA [3, 5]: 5 ± 6% | Ratio in % of Natural PABA to Stable Isotope PABA, range [3, 5]: 0-14% | Ratio in % of Natural PABA to Stable Isotope PABA [3, 6]: 4 ± 3% | Ratio in % of Natural PABA to Stable Isotope PABA, range [3, 6]: 0-11% | PABA ratio in sera at 60 minutes, FIG. 1 ([3]; Group B, cystic fibrosis): < 0.32 | PABA ratio in sera at 60 minutes, FIG. 1 (in words) ([3]; Group C, failed to improve on pancreatic supplementary enzymes): this entire Group C is normal | Ratio in % of Natural PABA to Stable Isotope PABA, range ([3]; Normals (n = 38), serum one hour): 34-200% | Ratio in % of Natural PABA to Stable Isotope PABA ([3]; Normals (n = 38), serum one hour after 6.7 mg bentiromide and 2 mg [^13 C]6 -PABA): 80 ± 20% | Ratio in % of Natural PABA to Stable Isotope PABA [3, 7]: 7 ± 6% | Ratio in % of Natural PABA to Stable Isotope PABA, range [3, 7]: 1-16% | Ratio in % of Natural PABA to Stable Isotope PABA ([3]; Partial Pancreatectomy (n = 2), individual values, serum one hour): 2% and 37% | ratio of natural PABA to PABA isotope ([3]; patients with documented pancreatic insufficiency, 60-minute samples): ≤ 0.18 | Pancreatic Ratio ([3]; person with steatorrhea, sixty minutes, 6.7 mg bentiromide, 2.0 mg stable isotope PABA, nl greater than 0.32): 0.06
SMILES: O=C(O)c1ccc(NC(=O)[C@H](Cc2ccc(O)cc2)NC(=O)c2ccccc2)cc1 [Bentiromide, N-benzoyl-L-tyrosyl-p-aminobenzoic acid]
plasma bentiromide test result in cystic fibrosis patients [4]: abnormally low
